Laboratory results reported in patent US20250289878A1, “SURFACE-MODIFIED EXOSOMES AND METHODS OF USE” (The Board of Regents of the University of Oklahoma, priority 2021, published 2025).

Columns and labels:
[1] = tested on: cleaved caspase-3 and cleaved PARP of B16F10 cells; assay: Apoptotic activity: cleaved caspase-3 and cleaved PARP by ELISA and western blot; type: cell-based, murine; conditions: DOX 5 μM, 24 hours
Experimental: B16F10 cells were seeded in a 100 mm cell culture dish with cell density at 4.4×10^6 and incubated for 24 hours. After the treatment of various agents with a fixed concentration of DOX (5 μM) for 24 hours, proteins were collected using a cell lysis buffer on ice. Proteins were separated by electrophoresis and transferred to PVDF membranes. Cleaved caspase-3, cleaved PARP, and β-actin (Cell Signaling Technology, Danvers, MA, USA) were used as primary antibodies, and IRDye secondary antibodies (LI-COR Biosciences, Lincoln, NE, USA) were used as secondary antibodies. The protein bands were imaged using the Odyssey CLx (LI-COR Biosciences, Lincoln, NE, USA). The apoptotic activities of dAEx were evaluated by measuring the level of cleaved caspase-3, and cleaved PARP in the protein samples with a cleaved PARP (Cell Signaling Technology, Danvers, MA, USA) and a cleaved caspase-3 (R&D systems, Minneapolis, MN, USA) ELISA kit according to manufacturer's protocol.

B16F10 tumor = assay: B16F10 murine tumor model, therapeutic efficacy; type: in vivo, mice; conditions: IV every three days, DOX 5 mg/kg (ASL 2.5 mg/kg), vs untreated control
Experimental: B16F10 cells (1×10^6) were directly injected into the flank of 6 weeks old mice. The mice were randomly grouped by six in each and observed until the cancer volume reached ˜50 mm^3. […] The tumor volume was calculated based on the formula: (width^2×length)/2. On day 18, the mice were sacrificed, and organs were harvested for histological analysis. H&E and TUNEL staining were performed using the paraffin-embedded tissues.

B16F10 cells = assay: CCK-8 cell viability / cytotoxicity test; type: cell-based, murine; conditions: Mus musculus, B16-F10, DOX concentration, 24 hours, read-out: half-maximal inhibitory concentration (IC50)
Experimental: Cells (B16F10 and RAW 264.7 cell line) were grown in DMEM containing 10% FBS at 37° C. with 5% CO2. B16F10 and RAW 264.7 cells were seeded on the 96 well tissue culture plates (1×10^4 per well) and cultured for 24 hours. To confirm the biosafety of ASL and AEx, the cells were treated with various concentrations of ASL and AEx and incubated for 24 hours. For the cytotoxicity test, B16F10 cells were given the various concentrations of dAEx, dEx, DOX. In addition to the further competition test, B16F10 cells were incubated with the cyclic RGD (2 μM) for 2 hours and treated with the various concentrations of dAEx. After 24 hours of the treatment, to investigate the cell survival, cells were washed using the fresh PBS twice, and 10% CCK-8 containing DMEM was added to each well and incubated for 1 hour. The absorbance was measured using a microplate reader at 450 nm.

## COc1cccc2c1C(=O)c1c(O)c3c(c(O)c1C2=O)C[C@@](O)(C(=O)CO)C[C@@H]3O[C@H]1C[C@H](N)[C@H](O)[C@H](C)O1 [DOX, Doxorubicin]
[1]
  expression of cleaved caspase-3 and cleaved PARP: slight activation
B16F10 tumor
  tumor growth (tumor volume): did not significantly inhibit tumor growth
B16F10 cells
  IC50: 9.85 ± 1.06 µM
